# Results reported in patent publication US4613355A, “Antibiotic having herbicidal activity” (Satoshi Omura, priority 1983, dated 1986).
# Experiments:
# [1] = system: Staphylococcus aureus KB210; experiment: MIC by agar dilution method; type: cell-based; settings: medium A Davis's minimal medium (pH 7.0)
# [2] = system: Staphylococcus aureus KB199; experiment: MIC by agar dilution method; type: cell-based; settings: medium A Davis's minimal medium (pH 7.0)
# Bacillus subtilis KB211 = experiment: MIC by agar dilution method; type: cell-based
# Bacillus cereus KB143 = experiment: MIC by agar dilution method; type: cell-based; settings: medium A Davis's minimal medium (pH 7.0)
# Micrococcus luteus KB212 = experiment: MIC by agar dilution method; type: cell-based; settings: medium A Davis's minimal medium (pH 7.0)
# Escherichia coli KB213 = experiment: MIC by agar dilution method; type: cell-based; settings: medium A Davis's minimal medium (pH 7.0)
# Source text: The minimum inhibitory concentrations (MIC values) of Phosalacine were investigated in conventional manner by the agar dilution method and the results are indicated in the following Table, from which it is apparent that Phosalacine is active against various Gram-positive and Gram-negative bacteria and fungi.
# [Notes: A . . . Davis's minimal medium (pH 7.0), B . . . Dextrose Czapek'
# Escherichia coli KB176 = experiment: MIC by agar dilution method; type: cell-based; settings: medium A Davis's minimal medium (pH 7.0)
# [3] = system: Klebsiella pneumoniae KB214; experiment: MIC by agar dilution method; type: cell-based; settings: medium A Davis's minimal medium (pH 7.0)
# Erwinia aroideae KB148 = experiment: MIC by agar dilution method; type: cell-based; settings: medium A Davis's minimal medium (pH 7.0)
# Proteus vulgaris KB127 = experiment: MIC by agar dilution method; type: cell-based; settings: medium A Davis's minimal medium (pH 7.0)
# Candida albicans KFl = experiment: MIC by agar dilution method; type: cell-based; settings: medium B Dextrose Czapek' medium
# Aspergillus niger KF105 = experiment: MIC by agar dilution method; type: cell-based; settings: medium B Dextrose Czapek' medium
# Mucor racemosus KF223 = experiment: MIC by agar dilution method; type: cell-based; settings: medium B Dextrose Czapek' medium
# Piricularia oryzae KF180 = type: cell-based; settings: medium B Dextrose Czapek' medium
# various plants = experiment: Inhibition of regrowth one month after foliage treatment (Example 8); type: in vivo; settings: visually assessed, compared with SF-1293
# Protocol: Aqueous solutions of Phosalacine (Na salt) at different concentrations were applied at a rate of 1500 liters per hectare to naturally occurring plants or plants which were cultured on plates as shown in the following Table at certain stages of growth. The Phosalacine applied contained 0.1% of octylphenylpolyoxy ethanol as surfactant. 7 and 14 days after the foliage treatment, damage to the plants was visually assessed on a scale of from 0 to 5 where 0 indicates no effect and 5 indicates complete kill. […] One month after the foliage treatment, the inhibition of regrowth of the plants was visually investigated.
# One month after the foliage treatment, the inhibition of regrowth of the plants was visually assessed.
# Chamaecyparis obtusa = experiment: Foliage treatment of woody plants (Example 10); type: in vivo; settings: even when applied at a concentration of 0.5%
# Source text: (§1) Aqueous solutions containing Phosalacine (Na salt) at different concentrations and 0.1% of octylphenylpolyoxy ethanol as surfactant were applied at a rate of 1500 liter per hectare to woody plants of about 60-70 cm in height. 7 and 14 days after the foliage treatment, damage to the plants was visually assessed on a scale of from 0 to 5 (cf. Example 7).
# Cryptomeria japonica = experiment: Foliage treatment of woody plants (Example 10); type: in vivo; settings: in vivo
# Source text: as §1
# Killifishes (Medaka) = experiment: Acute toxicity to fish, survival ratio (Example 13); type: in vivo; settings: for Survival ratio (%): killifish, 100 ppm
# Protocol: Killifishes (Japanese name, Medaka), were obtained from a market and maintained in a water bath at 25±2° C. for a week. Then the fishes (each group consisting of 10 fishes) were placed in water baths containing the test compounds at given concentrations as shown in the following Table. 24 and 48 hours after this, the survival ratio (%) of each group was visually counted to assess the acute toxity.
# [4] = Acute toxicity in mice per os, body weight (Example 14); type: in vivo, Mice ICR (RJ) strain; settings: for Body weight: 500 mg/kg per os
# Protocol: Mice [ICR (RJ) strain; female; 6 weeks after birth; each group consisting of 10 mice] were used as test animals to investigate the acute toxity of Phosalacine in mice. A 1% aqueous solution (free acid) was forcibly administered per os to each animal and the body weight of each animal was measured 7 and 14 days after administration. Separately, a similar test was effected by administering Phosalacine (free acid) at a dose of 100 mg/kg.
# [5] = Physico-chemical characteristics: acid/base nature; type: physicochemical
# Digitaria adscendens = experiment: Foliage treatment of seedlings in pots (Example 7); type: in vivo; settings: 10 days after foliage treatment, 1000 liter per hectare
# Protocol: Upland soil was put in a pot of 10 cm diameter and the seeds of Digitaria adscendens were sown in the soil at a depth of 1 cm from the surface. When the height of the seedlings was about 10 cm, aqueous solutions of the test compounds as shown in the following Table were uniformly sprayed on the plants at a rate of 1.2 ml per plant, equivalent to 1000 liter per hectare. 10 days after the foliage treatment, damage to plants was visually assessed on a scale of from 0 to 10, where 0 indicates no effect and 10 indicates complete kill.
# Rumex obtusifolius = experiment: Foliage treatment with different salts (Example 11); type: in vivo; parameters: key: 0 indicates no effect; 5 indicates complete kill; settings: Rumex obtusifolius (Plant No. 14), 1000 liter per hectare
# Protocol: Aqueous solutions containing different salts of Phosalacine at different concentrations as active ingredients and 0.1% of octylphenylpolyoxy ethanol as surfactant were applied at a rate of 1000 liter per hectare to Rumex obtusifolius (Plant No. 14) at a certain stage of growth. 21 days after foliage treatment, damage to the plant was visually assessed on a scale of 0 to 5 as hereinbefore described. The salts used were prepared by the methods described in the reference mentioned above.
compound,measurement,setting,value
"CC(C)C[C@H](NC(=O)[C@H](C)NC(=O)[C@@H](N)CCP(C)(=O)O)C(=O)O [Phosalacine, phosphinothricyl-alanyl leucine]",MIC,[1],0.4 µg/mL
same,MIC,[2],0.2 µg/mL
same,MIC,"Bacillus subtilis KB211; Bacillus subtilis KB211, medium A Davis's minimal medium (pH 7.0)",0.4 µg/mL
same,Effect of glutamine on activity against Bacillus subtilis,Bacillus subtilis KB211; synthetic media,competitively antagonised by glutamine
same,MIC,Bacillus cereus KB143,0.4 µg/mL
same,MIC,Micrococcus luteus KB212,6.25 µg/mL
same,MIC,Escherichia coli KB213,12.5 µg/mL
same,MIC,Escherichia coli KB176,25 µg/mL
same,MIC,[3],25 µg/mL
same,MIC,Erwinia aroideae KB148,< 0.05 µg/mL
same,MIC,Proteus vulgaris KB127,25 µg/mL
same,MIC,Candida albicans KFl,> 100 µg/mL
same,MIC,Aspergillus niger KF105,> 100 µg/mL
same,MIC,Mucor racemosus KF223,6.25 µg/mL
same,MIC,Piricularia oryzae KF180,0.1 µg/mL
same,inhibition of regrowth of the plants,various plants,equal or superior to that of SF-1293
same,herbicidal activity against Chamaecyparis obtusa,Chamaecyparis obtusa,not herbicidally active
same,herbicidal activity against Cryptomeria japonica,Cryptomeria japonica,relatively low herbicidal activity
same,"acute toxity against fish, comparison",Killifishes (Medaka); fish,less than that of glyphosate and SF-1293
same,Body weight,[4]; After 0 days,23.9 g
same,Body weight,[4]; After 7 days,24.5 g
same,Body weight,[4]; After 14 days,26.2 g
same,change of body weight,[4]; dose of 100 mg/kg,No significant change of body weight
same,acute toxity to mice,[4]; per os,very low
same,Acid/base nature,[5],Amphoteric
CC(C)C[C@H](NC(=O)[C@H](C)NC(=O)[C@@H](N)CCP(C)(=O)O)C(=O)O.CCNCC [monodiethylamine salt],"damage to plants, scale 0 to 10",Digitaria adscendens; Concentration 0.01 ppm,5 (50)
same,"damage to plants, scale 0 to 10",Digitaria adscendens; Concentration 0.03 ppm,10 (100)
same,"damage to plants, scale 0 to 10",Digitaria adscendens; Concentration 0.1 ppm,10 (100)
CC(C)CC(NC(=O)C(C)NC(=O)C(N)CCP(C)(=O)O)C(=O)O.CCCCN (centres unmarked) [Mono n-butylamine salt],"Damage to plants after 21 days, scale 0 to 5",Rumex obtusifolius; 0.05%,3
same,"Damage to plants after 21 days, scale 0 to 5",Rumex obtusifolius; 0.1%,5
CC(C)CC(NC(=O)C(C)NC(=O)C(N)CCP(C)(=O)[O-])C(=O)[O-].[K+].[K+] (centres unmarked) [Di Ka salt],"Damage to plants after 21 days, scale 0 to 5",Rumex obtusifolius; 0.05%,3
same,"Damage to plants after 21 days, scale 0 to 5",Rumex obtusifolius; 0.1%,5
CC(C)CC(NC(=O)C(C)NC(=O)C(N)CCP(C)(=O)[O-])C(=O)[O-].[Na+].[Na+] (centres unmarked) [Di Na salt],"Damage to plants after 21 days, scale 0 to 5",Rumex obtusifolius; 0.05%,3
same,"Damage to plants after 21 days, scale 0 to 5",Rumex obtusifolius; 0.1%,5
CC(C)CC(NC(=O)C(C)NC(=O)C(N)CCP(C)(=O)O)C(=O)O.CC(C)N (centres unmarked) [Mono isopropylamine salt],"Damage to plants after 21 days, scale 0 to 5",Rumex obtusifolius; 0.05%,3
same,"Damage to plants after 21 days, scale 0 to 5",Rumex obtusifolius; 0.1%,5
"CPCC[C@H](N)C(=O)O (stereo partly drawn) [L-2-amino-4-methylphosphino butyric acid, reference compound]",Survival ratio (%),Killifishes (Medaka); 24 hours,0%
same,Survival ratio (%),Killifishes (Medaka); 48 hours,0%
